This passage reports Ki results from PMC5424641 (Biomolecules & Therapeutics, 2017).

Each structure is given as a SMILES string. Counter-ions that a name gives are not always drawn. Like-named read-outs stand apart in the source and are kept apart here.

The target of experiment [1] is T1, urotensin II receptor (hUT) (Homo sapiens, UniProt Q9UKP6).
T1 sequence (Q9UKP6 1-389): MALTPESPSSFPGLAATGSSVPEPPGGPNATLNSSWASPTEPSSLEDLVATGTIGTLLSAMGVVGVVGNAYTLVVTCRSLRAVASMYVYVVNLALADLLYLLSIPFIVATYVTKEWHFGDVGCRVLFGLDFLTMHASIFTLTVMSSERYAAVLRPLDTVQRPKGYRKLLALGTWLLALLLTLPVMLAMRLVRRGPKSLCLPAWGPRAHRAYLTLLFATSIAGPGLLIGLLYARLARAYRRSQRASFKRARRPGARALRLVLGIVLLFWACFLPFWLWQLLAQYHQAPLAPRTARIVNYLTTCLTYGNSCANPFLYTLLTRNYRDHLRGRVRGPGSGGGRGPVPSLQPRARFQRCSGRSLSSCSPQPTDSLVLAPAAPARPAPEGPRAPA
Put plainly: radioligand binding assay.

Experiment [2] deals with T1, urotensin II receptor (hUT). The experiment can be described thus: radioligand binding assay. The source holds these as a separate data set.

`CN(C(=O)CN1C(=O)COc2cc(Cl)c(Cl)cc21)[C@@H](CN1CCOCC1)c1ccc(-c2ccc(C(=O)O)cc2)cc1` [GSK-1440115, 4′-[(1R)-1-[[(6,7-dichloro-3-oxo-2,3-dihydro-4H-1,4-benzoxazin-4-yl)acetyl](methyl)amino]-2-(4-morpholinyl)ethyl]-4-biphenylcarboxylic acid trifluoroacetate] yielded a Ki in experiment [1] of 0.031 µM.

On to `O=C(NC1CCN(Cc2ccc(OC3CCNCC3)c(Br)c2)CC1)c1csc2ccccc12` [KR-36996, N-(1-(3-bromo-4-(piperidin-4-yloxy)benzyl)piperidin-4-yl)benzo[b]thiophene-3-carboxamide], for which the affinity in experiment [2] corresponds to a Ki of 0.004 µM. This lies in the single-digit nanomolar range.
